Results from US20140121216A1, “INDOLEAMINE DERIVATIVES FOR THE TREATMENT OF CENTRAL NERVOUS SYSTEM DISEASES” (Adamed Sp. z o.o., priority 2011, published 2014).

How the values were obtained:
Swiss albino mice = experiment: Four-plate test in Swiss albino mice; format: in vivo
Protocol: (§1) Within 24 h prior to testing, animals were habituated to experimental conditions. For this purpose mice in home cages were transferred to the experimental room for 15 min., while maintaining the lighting and the “white noise” characteristic for the experiment.
The four-plate test (BIOSEB, France) was performed in a cage (25×18×16 cm) floored by four identical rectangular metal plates (8×11 cm) separated from one another by a gap of 4 mm. The top of the cage was covered by a transparent Perspex lid that prevented escape behaviour. The plates were connected to a device that generated electric shocks. Animals were placed individually in the experimental cage and following a 15-s habituation period, the animal's motivation to explore a novel environment was suppressed by an electric foot shock (0.8 mA, 0.5 s) every time it moved from one plate is to another during a 1-minute test session. This action is referred to as a ‘punished crossing’, and was followed by a 3 s shock interval, during which the animal could move across plates without receiving a shock. The measure of anxiolytic activity of the compound was the number of ‘punished crossings’ from one plate to the adjacent during 1-min test period.

[1] = biological target: T1, 5-HT7 receptor, human recombinant (Homo sapiens, UniProt P34969); experiment: Binding assay, 5-HT7 receptor ([3H]LSD); conditions: read-out: Inhibition constant Ki 5-HT7
T1 construct: purchased PerkinElmer
T1 sequence (P34969 whole entry): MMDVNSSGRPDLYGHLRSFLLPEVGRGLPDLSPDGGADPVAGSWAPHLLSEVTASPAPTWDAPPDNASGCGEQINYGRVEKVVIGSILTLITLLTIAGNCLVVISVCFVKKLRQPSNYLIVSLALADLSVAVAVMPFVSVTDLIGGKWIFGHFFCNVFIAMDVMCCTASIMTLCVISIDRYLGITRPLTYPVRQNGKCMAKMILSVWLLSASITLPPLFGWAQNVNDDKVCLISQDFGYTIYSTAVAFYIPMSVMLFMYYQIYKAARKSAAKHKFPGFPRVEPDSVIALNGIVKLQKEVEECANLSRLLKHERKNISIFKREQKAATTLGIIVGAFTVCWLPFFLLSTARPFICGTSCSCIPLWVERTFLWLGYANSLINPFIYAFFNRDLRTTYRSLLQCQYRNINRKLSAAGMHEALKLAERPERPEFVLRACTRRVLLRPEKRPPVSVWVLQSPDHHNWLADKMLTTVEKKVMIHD
Protocol: (§2) Moreover, ability of the compounds of the invention to block potassium channel hERG was tested.
(§3) The specific ligand binding to the receptors is defined as the difference between the total binding and the non-specific binding determined in the presence of an excess of unlabelled ligand.
(§4) The inhibition constants (Ki) were calculated using the Cheng Prusoff equation (Ki=IC50/(1+(L/KD)), where L=concentration of radioligand in the assay, and KD=affinity of the radioligand for the receptor). A Scatchard plot is used to determine the Kd. The IC50 values (concentration causing a half-maximal inhibition of control specific binding) and Hill coefficients (nH) were determined by non-linear regression analysis of the competition curves generated with mean replicate values using Hill equation curve fitting (Y=D+[(A−D)/(1+(C/C50)^nH)], where Y=specific binding, D=minimum specific binding, A=maximum specific binding, C=compound concentration, C50=IC50, and nH=slope factor).

male Wistar rats = experiment: Conflict test (Vogel test) in rats; format: in vivo
Protocol: Drug-naive male Wistar rats (Charles River, Sulzfeld, Germany) weighing 250-400 g were housed in polycarbonate Makrolon cages (380×200×590 mm) in an environmentally controlled, experimental room (ambient temperature 21-23° C.; relative humidity 50-60%; 12:12 light:dark cycle, lights on at 7:00 a.m.), in groups of 4. Tap water and standard lab chow (Labofeed H, WPIK, Kcynia, Poland) was available ad libitum.
The animals were delivered to the Animal Research Unit of the Department of Pharmacology, Institute of Psychiatry and Neurology, 2 weeks before the start of experimental procedures. During these 2 weeks all the rats were repeatedly getting used to the presence of the experimenter (handling), and to injections of saline.
On the day before experiments rats were weighted exact to 1 g. Animals were assigned randomly to treatment groups. All the experiments were performed on separate groups of animals, between 9:00 and 15:00. Tested compound was administered intraperitoneally (i.p.) in an injection volume of 2 ml/kg in at least 3 selected doses. Control groups received an appropriate vehiculum. […]
The test was performed by modified method described by Vogel et al. (Psychopharmacologia, 21 (1), 8-12, 1971) using the monitoring system TSE Systems. […] The number of licks and the number of shocks received throughout a 5-min experimental session were recorded automatically.

C57BL/6J mice = experiment: Tail suspension test in C57BL/6J mice; format: in vivo
Protocol: as §1
The testing procedure was performed on male C57BL/6J mice and based on a method of Steru et al. (The tail suspension test: a new method for screening antidepressants in mice, Psychopharmacology 85, 367-370, 1985). An automated device (Kinder Scientific) was used. After 1 h of adaptation in the experimental room with low light, the mice received the test compound intraperitoneally (at least 3 selected doses).
After a specified time after administration of the test compound mice were suspended by the tail with tape to an aluminum hook connected to a strain gauge. Mice were positioned such that the base of their tail was aligned with the bottom of the hook. […] A strain gauge connected to computer software detected any movements by the mouse in order to record the number of times (events) each subject enters into an escape behavior (struggling episodes), the duration of the event, and the average strength of each event during a 6-min test session. The following settings were used in all experiments: threshold 0.20 Newtons, off delay 30 msec.

[2] = biological target: 5-HT2A receptor, human recombinant (Homo sapiens, UniProt P28223); experiment: Binding assay, 5-HT2A receptor ([3H]ketanserin)
5-HT2A receptor, human recombinant, sequence (P28223 whole entry, looked up): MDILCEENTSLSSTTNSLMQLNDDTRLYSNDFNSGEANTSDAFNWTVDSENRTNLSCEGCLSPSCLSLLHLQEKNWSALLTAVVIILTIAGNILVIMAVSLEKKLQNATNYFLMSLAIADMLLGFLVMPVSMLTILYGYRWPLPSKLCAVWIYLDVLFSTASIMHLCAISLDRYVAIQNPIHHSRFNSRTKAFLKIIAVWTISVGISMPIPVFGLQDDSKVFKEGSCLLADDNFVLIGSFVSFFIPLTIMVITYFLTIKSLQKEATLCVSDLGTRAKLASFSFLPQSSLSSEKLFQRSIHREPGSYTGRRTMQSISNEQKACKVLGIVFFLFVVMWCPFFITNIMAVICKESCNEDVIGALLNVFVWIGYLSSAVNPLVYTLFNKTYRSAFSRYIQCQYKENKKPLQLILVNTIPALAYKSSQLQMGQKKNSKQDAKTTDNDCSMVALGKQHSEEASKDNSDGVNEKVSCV
Protocol: as §2, §3, §4

O=C1CCc2ccc(OCCCCN3CCN(c4cccc5c4ccn5S(=O)(=O)c4ccccc4)CC3)cc2N1 [Compound 24, 7-(4-(4-(1-(Phenylsulphonyl)-1H-indol-4-yl)piperazin-1-yl)butoxy)-3,4-dihydroquinolin-2(1H)-one]
MED (minimum effective dose), four-plate test (Swiss albino mice; Swiss albino mice): 5 mg/kg
activity in words, four-plate test (Swiss albino mice; mice): active
Ki [1]: 67 nM
activity in words, conflict drinking test (Vogel) (male Wistar rats): active
MED (minimum effective dose), conflict test (Vogel test) (male Wistar rats; i.p.): 3 mg/kg
MED (minimum effective dose), tail suspension test (C57BL/6J mice; C57BL/6J mice, i.p.): 1.25 mg/kg
activity in words, tail suspension test (C57BL/6J mice; mice): active

O=C1CCc2ccc(OCCCCN3CCN(c4cccc5c4ccn5Cc4cccc(Cl)c4)CC3)cc2N1 [Compound 67, 7-[4-[4-[1-[(3-Chlorophenyl)methyl]indol-4-yl]piperazin-1-yl]butoxy]-3,4-dihydro-1H-quinolin-2-one]
Ki [2]: 2.4 nM
